Tests used:
MDA-MB-468 [1] = assay: Growth inhibition of human MDA-MB-468 cells assessed as growth percentage at 10 uM incubated for 48 hrs by sulforhodamine B assay relative to control; assay type: functional; details: read-out: Activity
OVCAR-3 [2] = assay: Growth inhibition of human OVCAR-3 cells assessed as growth percentage at 10 uM incubated for 48 hrs by sulforhodamine B assay relative to control; assay type: functional; details: read-out: Activity
SK-MEL-28 = assay: Growth inhibition of human SK-MEL-28 cells assessed as growth percentage at 10 uM incubated for 48 hrs by sulforhodamine B assay relative to control; assay type: functional; details: read-out: Activity
SNB-19 [3] = assay: Growth inhibition of human SNB-19 cells assessed as growth percentage at 10 uM incubated for 48 hrs by sulforhodamine B assay relative to control; assay type: functional; details: read-out: Activity
HCT-15 = assay: Growth inhibition of human HCT-15 cells assessed as growth percentage at 10 uM incubated for 48 hrs by sulforhodamine B assay relative to control; assay type: functional; details: read-out: Activity
NCI-H522 = assay: Growth inhibition of human NCI-H522 cells assessed as growth percentage at 10 uM incubated for 48 hrs by sulforhodamine B assay relative to control; assay type: functional; details: read-out: Activity
NCI-H460 [4] = assay: Growth inhibition of human NCI-H460 cells assessed as growth percentage at 10 uM incubated for 48 hrs by sulforhodamine B assay relative to control; assay type: functional; details: read-out: Activity
MOLT-4 [5] = assay: Growth inhibition of human MOLT-4 cells assessed as growth percentage at 10 uM incubated for 48 hrs by sulforhodamine B assay relative to control; assay type: functional; details: read-out: Activity
SNB-75 = assay: Growth inhibition of human SNB-75 cells incubated for 48 hrs by sulforhodamine B assay; assay type: functional
SNB-19 [6] = assay: Growth inhibition of human SNB-19 cells incubated for 48 hrs by sulforhodamine B assay; assay type: functional
SF-295 [7] = assay: Growth inhibition of human SF-295 cells incubated for 48 hrs by sulforhodamine B assay; assay type: functional
HT-29 [8] = assay: Growth inhibition of human HT-29 cells incubated for 48 hrs by sulforhodamine B assay; assay type: functional
[9] = Cytotoxicity against human HFF-1 cells assessed as cell growth inhibition by MTT assay; assay type: cell-based
DU-145 = assay: Growth inhibition of human DU-145 cells assessed as growth percentage at 100 uM incubated for 48 hrs by sulforhodamine B assay relative to control; assay type: functional; details: read-out: Activity
PC-3 [10] = assay: Growth inhibition of human PC-3 cells assessed as growth percentage at 100 uM incubated for 48 hrs by sulforhodamine B assay relative to control; assay type: functional; details: read-out: Activity
UACC-257 = assay: Growth inhibition of human UACC-257 cells assessed as growth percentage at 100 uM incubated for 48 hrs by sulforhodamine B assay relative to control; assay type: functional; details: read-out: Activity
A549 = assay: Growth inhibition of human A549/ATCC cells assessed as growth percentage at 100 uM incubated for 48 hrs by sulforhodamine B assay relative to control; assay type: functional; details: read-out: Activity
UO-31 = assay: Growth inhibition of human UO-31 cells assessed as growth percentage at 1 uM incubated for 48 hrs by sulforhodamine B assay relative to control; assay type: functional; details: read-out: Activity
RXF 393 [11] = assay: Growth inhibition of human RXF 393 cells assessed as growth percentage at 1 uM incubated for 48 hrs by sulforhodamine B assay relative to control; assay type: functional; details: read-out: Activity
NCI/ADR-RES = assay: Growth inhibition of human NCI/ADR-RES cells assessed as growth percentage at 1 uM incubated for 48 hrs by sulforhodamine B assay relative to control; assay type: functional; details: read-out: Activity
SNB-19 [12] = assay: Growth inhibition of human SNB-19 cells assessed as growth percentage at 1 uM incubated for 48 hrs by sulforhodamine B assay relative to control; assay type: functional; details: read-out: Activity
SW-620 = assay: Growth inhibition of human SW-620 cells assessed as growth percentage at 1 uM incubated for 48 hrs by sulforhodamine B assay relative to control; assay type: functional; details: read-out: Activity
HT-29 [13] = assay: Growth inhibition of human HT-29 cells assessed as growth percentage at 1 uM incubated for 48 hrs by sulforhodamine B assay relative to control; assay type: functional; details: read-out: Activity
MOLT-4 [14] = assay: Growth inhibition of human MOLT-4 cells assessed as growth percentage at 1 uM incubated for 48 hrs by sulforhodamine B assay relative to control; assay type: functional; details: read-out: Activity
BT-549 = assay: Growth inhibition of human BT-549 cells assessed as growth percentage at 0.1 uM incubated for 48 hrs by sulforhodamine B assay relative to control; assay type: functional; details: read-out: Activity
CCRF-CEM = assay: Growth inhibition of human CCRF-CEM cells assessed as growth percentage at 1 uM incubated for 48 hrs by sulforhodamine B assay relative to control; assay type: functional; details: read-out: Activity
MDA-MB-231 = assay: Growth inhibition of human MDA-MB-231/ATCC cells assessed as growth percentage at 0.1 uM incubated for 48 hrs by sulforhodamine B assay relative to control; assay type: functional; details: read-out: Activity
PC-3 [15] = assay: Growth inhibition of human PC-3 cells assessed as growth percentage at 0.1 uM incubated for 48 hrs by sulforhodamine B assay relative to control; assay type: functional; details: read-out: Activity
OVCAR-3 [16] = assay: Growth inhibition of human OVCAR-3 cells assessed as growth percentage at 0.1 uM incubated for 48 hrs by sulforhodamine B assay relative to control; assay type: functional; details: read-out: Activity
IGROV-1 = assay: Growth inhibition of human IGROV-1 assessed as growth percent at 0.1 uM incubated for 48 hrs by sulforhodamine B assay relative to control; assay type: functional; details: read-out: Activity
NCI-H460 [17] = assay: Growth inhibition of human NCI-H460 cells assessed as growth percentage at 0.1 uM incubated for 48 hrs by sulforhodamine B assay relative to control; assay type: functional; details: read-out: Activity
MDA-MB-468 [18] = assay: Growth inhibition of human MDA-MB-468 cells assessed as growth percentage at 0.01 uM incubated for 48 hrs by sulforhodamine B assay relative to control; assay type: functional; details: read-out: Activity
RXF 393 [19] = assay: Growth inhibition of human RXF 393 cells assessed as growth percentage at 0.01 uM incubated for 48 hrs by sulforhodamine B assay relative to control; assay type: functional; details: read-out: Activity
A498 = assay: Growth inhibition of human A498 cells assessed as growth percentage at 0.01 uM incubated for 48 hrs by sulforhodamine B assay relative to control; assay type: functional; details: read-out: Activity
M14 = assay: Growth inhibition of human M14 cells assessed as growth percentage at 0.01 uM incubated for 48 hrs by sulforhodamine B assay relative to control; assay type: functional; details: read-out: Activity
LOX IMVI = assay: Growth inhibition of human LOX IMVI cells assessed as growth percentage at 0.01 uM incubated for 48 hrs by sulforhodamine B assay relative to control; assay type: functional; details: read-out: Activity
SF-295 [20] = assay: Growth inhibition of human SF-295 cells assessed as growth percentage at 0.01 uM incubated for 48 hrs by sulforhodamine B assay relative to control; assay type: functional; details: read-out: Activity
HT-29 [21] = assay: Growth inhibition of human HT-29 cells assessed as growth percentage at 0.01 uM incubated for 48 hrs by sulforhodamine B assay relative to control; assay type: functional; details: read-out: Activity
NCI-H460 [22] = assay: Growth inhibition of human NCI-H460 cells assessed as growth percentage at 0.01 uM incubated for 48 hrs by sulforhodamine B assay relative to control; assay type: functional; details: read-out: Activity
HOP-92 = assay: Growth inhibition of human HOP-92 cells assessed as growth percentage at 0.01 uM incubated for 48 hrs by sulforhodamine B assay relative to control; assay type: functional; details: read-out: Activity

CCCCCCCC(=O)Nc1nc2[nH]c(CN3CCN(Cc4cccc(F)c4)CC3)c(CN3CCN(Cc4cccc(F)c4)CC3)c2c(=O)[nH]1
growth at 10 µM (MDA-MB-468 [1]): -68.7%
growth at 10 µM (OVCAR-3 [2]): -95%
growth at 10 µM (SK-MEL-28): -97%
growth at 10 µM (SNB-19 [3]): -81.6%
growth at 10 µM (HCT-15): -70.8%
growth at 10 µM (NCI-H522): -71.5%
growth at 10 µM (NCI-H460 [4]): -82.3%
growth at 10 µM (MOLT-4 [5]): -40%
GI50 (SNB-75): 1340 nM
LC50 (lethal concentration, 50% cell kill) (SNB-75): 5280 nM
TGI (SNB-75): 2660 nM
GI50 (SNB-19 [6]): 1560 nM
LC50 (concentration killing 50% of cells) (SNB-19 [6]): 6340 nM
TGI (SNB-19 [6]): 3140 nM
GI50 (SF-295 [7]): 1410 nM
LC50 (SF-295 [7]): 5790 nM
TGI (SF-295 [7]): 2850 nM
GI50 (HT-29 [8]; HT-29): 260 nM
CC50 (HT-29 [8]; HT-29, read-out: LC50 (the source's name)): 3760 nM
GI50 [9]: > 10000 nM
growth at 100 µM (DU-145): -83%
growth at 100 µM (PC-3 [10]): -88%
growth at 100 µM (UACC-257): -91%
growth at 100 µM (A549): -88%
growth at 1 µM (UO-31): 25%
growth at 1 µM (RXF 393 [11]): 29%
growth at 1 µM (NCI/ADR-RES): 79%
growth at 1 µM (SNB-19 [12]): 82%
growth at 1 µM (SW-620): -72%
growth at 1 µM (HT-29 [13]): -26%
growth at 1 µM (MOLT-4 [14]): -15%
growth at 0.1 µM (BT-549): 85%
growth at 1 µM (CCRF-CEM): -17%
growth at 0.1 µM (MDA-MB-231): 108%
growth at 0.1 µM (PC-3 [15]): 96%
growth at 0.1 µM (OVCAR-3 [16]): 102%
growth at 0.1 µM (IGROV-1): 95%
growth at 0.1 µM (NCI-H460 [17]): 105%
growth at 0.01 µM (MDA-MB-468 [18]): 92%
growth at 0.01 µM (RXF 393 [19]): 100%
growth at 0.01 µM (A498): 66%
growth at 0.01 µM (M14): 100%
growth at 0.01 µM (LOX IMVI): 87%
growth at 0.01 µM (SF-295 [20]): 97%
growth at 0.01 µM (HT-29 [21]): 96%
growth at 0.01 µM (NCI-H460 [22]): 94%
growth at 0.01 µM (HOP-92): 90%

— ChEMBL document CHEMBL4673219, “Novel 5,6-disubstituted pyrrolo[2,3-d]pyrimidine derivatives as broad spectrum antiproliferative agents: Synthesis, cell based assays, kinase profile and molecular docking study” (Bioorg Med Chem, 2018)
